Consider two molecules from ChEMBL document CHEMBL1158726, “Taxoids and abietanes from callus cultures of Taxus cuspidata” (2005).

Format in all cases: functional, A2780 ADR
Assay [1] can be described thus: Reversal of multidrug resistance in human 2780AD cells assessed as [3H]vincristine accumulation at 1 ug/mL after 2 hrs relative to control.
The nature of assay [2]: Reversal of multidrug resistance in human 2780AD cells assessed as [3H]vincristine accumulation at 0.1 ug/mL after 2 hrs relative to control.
A short description of assay [3]: Reversal of multidrug resistance in human 2780AD cells assessed as [3H]vincristine accumulation at 1 ug/mL after 2 hrs relative to verapamil.
Assay [4] in a line: Reversal of multidrug resistance in human 2780AD cells assessed as [3H]vincristine accumulation at 10 ug/mL after 2 hrs relative to verapamil.
Assay [5] can be described thus: Reversal of multidrug resistance in human 2780AD cells assessed as [3H]vincristine accumulation at 0.1 ug/mL after 2 hrs relative to verapamil.
Assay [6] in a line: Reversal of multidrug resistance in human 2780AD cells assessed as [3H]vincristine accumulation at 10 ug/mL after 2 hrs relative to control.

In the case of `C=C1[C@@H](OC(C)=O)CC[C@]2(C)[C@@H]1C[C@@H]1C[C@H](OC(C)=O)C(C)=C([C@@H](OC(C)=O)[C@@H]2OC(C)=O)C1(C)C` [TAXUSIN], the Activity in assay [1] worked out at 228%; in assay [2], 106%; in assay [3], 157%; in assay [4] it was 136%; in assay [5], 102%; in assay [6], 461%.
As for `COc1ccc(CCN(C)CCCC(C#N)(c2ccc(OC)c(OC)c2)C(C)C)cc1OC` (centres undefined) [VERAPAMIL], the results for the Activity in assay [1], in assay [2] and in assay [6] were 145%, 104% and 352%, respectively.
